Tested on: athletes
Assay: comparative study of amino acids mixture, creatine and placebo in athletes: bench press, squat, braked bicycle ergometer
Assay type: in vivo, humans
Excerpt: The effects on energy balance of the an amino acids mixture according to the invention as above indicated were the subject of a comparative study with creatine, on a weight ratio (w/w), or with no treatment, on a large group of volunteers submitted to a rigid protocol of alimentation and training. […] In some athletes, also heart frequency rate and VO2 max were registered while performing a treadmill test, before arid at the end of this study.

[1] = after one month of treatment and training, mixture 24 g/d, creatine 25 g/d

SMILES: CN(CC(=O)O)C(=N)N [creatine]
- performances over basal and no treatment group (after one month): significant improvements of performances
- Bench press [1]: 177 ± 34 kg
- Squat Room. [1]: 148.5 ± 31.2 kg
- Watt/Kg max (maximal power productive performance on a braked bicycle ergometer) [1]: 9.8 ± 0.6 watt/kg max
